Test results from patent US20040219186A1, “Expandable gastric retention device” (priority 2001, published 2004).
In brackets after ≈: the same amount, converted by molar mass. Read-outs that look alike come from different tables or passages of the source.

Key:
[1] = in vivo; cited from earlier work
Strep. pneumococci = details: cited from earlier work
[2] = Hydrochlorothiazide 50 mg bio-study, IR versus GRD, urinary drug excretion, urine output and side effects, fasting subjects; format: in vivo; details: both sexes, human, oral, HCTZ 50 mg, read-out: Elimination half-life (t1/2) (converted)
Experimental: Two formulations for hydrochlorothiazide (an immediate release formulation (IR) and a gastric retention device (GRD)) containing sustained release formulations (SR) were administered in the bio-study (bioavailability study). A commercial tablet containing 50 mg of HCTZ was used as an IR control, and spray-coated beads equivalent to 50 mg of HCTZ were formulated for SR in the lab. The process of SR formulation is described above. Bio-study was performed to evaluate the bioavailability as well as pharmacodynamics of HCTZ from a GRD compared to those from an IR.
Monitoring concentrations of hydrochlorothiazide in the urine of healthy adult volunteers allowed comparison of the relative bioavailability of hydrochlorothiazide from the GRD formulation and from a conventional tablet. Participation involved at least two days for each treatment with at least 72-hours washout period between doses. An IR was given once and the GRD was repeated twice to test the reproducibility of the new dosage form, GRD. A 50 mg dose of was chosen for the study because it was in the range of the recommended dose from the PDR (Physician's Desk References) and it produced concentrations high enough to make HPLC analysis efficient. Six subjects participated in the study, 4 healthy males and 2 healthy females. […] The volume of urine collected was measured in order to calculate total amount of drug recovered. […]

Row | SMILES | half-life [1] | MIC (Strep. pneumococci) | half-life [2]
1 | CC1(C)S[C@@H]2[C@H](NC(=O)[C@H](N)c3ccc(O)cc3)C(=O)N2[C@H]1C(=O)O [Amoxicillin] | about 1 hour | 0.02 µg/mL (≈ 0.0547 µM) | 
2 | NS(=O)(=O)c1cc2c(cc1Cl)NCNS2(=O)=O [hydrochlorothiazide] |  |  | ~7 h
